Values joined by “and” are separate entries in the source; they are usually repeats but may differ in a detail not shown here. Equal entries are not always repeated. Where two headings read alike, the source gives them in different places.
What was measured:
[1] = test system: QT interval on the body surface ECG; conditions: cited from earlier work; for QT shortening in the TQT study: range over the three drugs
Kv4.3/KChIP2.2 = target: T1, Kv4.3/KChIP2.2 (Homo sapiens, UniProt Q9UK17); experiment: IonWorks Quattro Kv4.3/KChIP2.2 screen (AstraZeneca, Q); assay type: cell-based; conditions: IonWorks Quattro, −log10 of IC50 in Molar, Hill n = 1
T1 sequence (Q9UK17 1-655): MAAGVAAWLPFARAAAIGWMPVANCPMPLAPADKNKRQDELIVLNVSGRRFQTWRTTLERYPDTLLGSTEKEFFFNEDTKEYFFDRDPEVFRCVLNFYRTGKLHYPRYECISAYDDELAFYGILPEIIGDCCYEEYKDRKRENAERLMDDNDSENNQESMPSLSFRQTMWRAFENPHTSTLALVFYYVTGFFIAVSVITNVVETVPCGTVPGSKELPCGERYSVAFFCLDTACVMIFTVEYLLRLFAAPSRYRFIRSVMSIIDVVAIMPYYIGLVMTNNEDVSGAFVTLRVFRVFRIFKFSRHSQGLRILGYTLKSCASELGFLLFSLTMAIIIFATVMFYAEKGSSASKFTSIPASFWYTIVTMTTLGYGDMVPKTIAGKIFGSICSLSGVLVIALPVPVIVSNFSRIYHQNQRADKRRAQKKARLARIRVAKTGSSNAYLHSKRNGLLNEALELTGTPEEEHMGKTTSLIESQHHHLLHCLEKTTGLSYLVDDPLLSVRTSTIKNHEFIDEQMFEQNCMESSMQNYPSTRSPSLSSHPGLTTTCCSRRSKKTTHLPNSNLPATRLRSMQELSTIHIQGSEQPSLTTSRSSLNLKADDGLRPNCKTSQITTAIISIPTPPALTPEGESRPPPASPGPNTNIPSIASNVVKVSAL
T1 sequence (Q9NS61 1-270 partner): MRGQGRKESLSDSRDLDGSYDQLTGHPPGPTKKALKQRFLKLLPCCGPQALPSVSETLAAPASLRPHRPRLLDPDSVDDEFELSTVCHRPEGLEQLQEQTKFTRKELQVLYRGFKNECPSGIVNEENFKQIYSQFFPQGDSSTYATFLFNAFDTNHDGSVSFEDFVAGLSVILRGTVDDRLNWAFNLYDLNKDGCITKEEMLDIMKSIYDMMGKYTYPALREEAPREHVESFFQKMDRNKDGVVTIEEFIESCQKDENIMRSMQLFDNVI

[2] = cited from earlier work
[3] = Plasma concentration (Cmax) during the TQT study, total and calculated free; assay type: in vivo, human
[4] = ref Gintant (2011); cited from earlier work
KCNQ1/MinK = KCNQ1/MinK (Homo sapiens, UniProt P51787); experiment: IonWorks Quattro KCNQ1/MinK screen (AstraZeneca, Q); conditions: −log10 of IC50 in Molar, Hill n = 1, 0.0 = pIC50 ≤ 0 fitted
NaV1.5 [5] = target: T2, NaV1.5 (Homo sapiens, UniProt Q14524); experiment: IonWorks Quattro NaV1.5 screen (AstraZeneca, Q)
NaV1.5 [6] = target: T2, NaV1.5; experiment: Second IonWorks Quattro NaV1.5 screen (GSK, Q2)
CaV1.2 = CaV1.2 (Homo sapiens, UniProt Q13936); experiment: IonWorks Quattro CaV1.2 screen (AstraZeneca, Q)
[7] = Cmax high, calculated from ng/mL and molecular weight
[8] = Cmax high, calculated with PPB and molecular weight
[9] = Cmax low, calculated from ng/mL and molecular weight
[10] = 40 mg, ref FDA product label review
[11] = first (lower) of two lines, not labelled low/high
[12] = second (higher) of two lines, not labelled low/high
[13] = Cmax low, calculated with PPB and molecular weight
[14] = IonWorks Quattro, −log10 of IC50 in Molar, Hill n = 1, 0.0 = pIC50 ≤ 0 fitted

Sequence of KCNQ1/MinK (P51787 whole entry): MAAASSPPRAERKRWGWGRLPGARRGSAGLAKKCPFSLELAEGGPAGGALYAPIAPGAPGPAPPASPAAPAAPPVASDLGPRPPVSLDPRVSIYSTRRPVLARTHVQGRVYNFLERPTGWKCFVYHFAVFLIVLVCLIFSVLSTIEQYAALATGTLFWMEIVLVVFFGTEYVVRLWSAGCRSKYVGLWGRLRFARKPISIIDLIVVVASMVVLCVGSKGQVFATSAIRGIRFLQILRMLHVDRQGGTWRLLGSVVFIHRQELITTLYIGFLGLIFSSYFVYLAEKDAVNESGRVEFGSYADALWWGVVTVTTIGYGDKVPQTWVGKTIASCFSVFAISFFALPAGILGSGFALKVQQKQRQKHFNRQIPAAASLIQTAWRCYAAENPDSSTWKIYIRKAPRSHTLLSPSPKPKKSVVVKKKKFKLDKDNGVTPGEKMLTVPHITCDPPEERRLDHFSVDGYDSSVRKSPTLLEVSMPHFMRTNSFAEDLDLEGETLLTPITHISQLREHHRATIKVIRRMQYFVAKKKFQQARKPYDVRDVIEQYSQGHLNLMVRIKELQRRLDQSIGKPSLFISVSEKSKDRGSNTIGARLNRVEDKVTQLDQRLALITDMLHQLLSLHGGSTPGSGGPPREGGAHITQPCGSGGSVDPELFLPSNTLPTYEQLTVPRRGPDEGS
Sequence of CaV1.2 (Q13936 whole entry): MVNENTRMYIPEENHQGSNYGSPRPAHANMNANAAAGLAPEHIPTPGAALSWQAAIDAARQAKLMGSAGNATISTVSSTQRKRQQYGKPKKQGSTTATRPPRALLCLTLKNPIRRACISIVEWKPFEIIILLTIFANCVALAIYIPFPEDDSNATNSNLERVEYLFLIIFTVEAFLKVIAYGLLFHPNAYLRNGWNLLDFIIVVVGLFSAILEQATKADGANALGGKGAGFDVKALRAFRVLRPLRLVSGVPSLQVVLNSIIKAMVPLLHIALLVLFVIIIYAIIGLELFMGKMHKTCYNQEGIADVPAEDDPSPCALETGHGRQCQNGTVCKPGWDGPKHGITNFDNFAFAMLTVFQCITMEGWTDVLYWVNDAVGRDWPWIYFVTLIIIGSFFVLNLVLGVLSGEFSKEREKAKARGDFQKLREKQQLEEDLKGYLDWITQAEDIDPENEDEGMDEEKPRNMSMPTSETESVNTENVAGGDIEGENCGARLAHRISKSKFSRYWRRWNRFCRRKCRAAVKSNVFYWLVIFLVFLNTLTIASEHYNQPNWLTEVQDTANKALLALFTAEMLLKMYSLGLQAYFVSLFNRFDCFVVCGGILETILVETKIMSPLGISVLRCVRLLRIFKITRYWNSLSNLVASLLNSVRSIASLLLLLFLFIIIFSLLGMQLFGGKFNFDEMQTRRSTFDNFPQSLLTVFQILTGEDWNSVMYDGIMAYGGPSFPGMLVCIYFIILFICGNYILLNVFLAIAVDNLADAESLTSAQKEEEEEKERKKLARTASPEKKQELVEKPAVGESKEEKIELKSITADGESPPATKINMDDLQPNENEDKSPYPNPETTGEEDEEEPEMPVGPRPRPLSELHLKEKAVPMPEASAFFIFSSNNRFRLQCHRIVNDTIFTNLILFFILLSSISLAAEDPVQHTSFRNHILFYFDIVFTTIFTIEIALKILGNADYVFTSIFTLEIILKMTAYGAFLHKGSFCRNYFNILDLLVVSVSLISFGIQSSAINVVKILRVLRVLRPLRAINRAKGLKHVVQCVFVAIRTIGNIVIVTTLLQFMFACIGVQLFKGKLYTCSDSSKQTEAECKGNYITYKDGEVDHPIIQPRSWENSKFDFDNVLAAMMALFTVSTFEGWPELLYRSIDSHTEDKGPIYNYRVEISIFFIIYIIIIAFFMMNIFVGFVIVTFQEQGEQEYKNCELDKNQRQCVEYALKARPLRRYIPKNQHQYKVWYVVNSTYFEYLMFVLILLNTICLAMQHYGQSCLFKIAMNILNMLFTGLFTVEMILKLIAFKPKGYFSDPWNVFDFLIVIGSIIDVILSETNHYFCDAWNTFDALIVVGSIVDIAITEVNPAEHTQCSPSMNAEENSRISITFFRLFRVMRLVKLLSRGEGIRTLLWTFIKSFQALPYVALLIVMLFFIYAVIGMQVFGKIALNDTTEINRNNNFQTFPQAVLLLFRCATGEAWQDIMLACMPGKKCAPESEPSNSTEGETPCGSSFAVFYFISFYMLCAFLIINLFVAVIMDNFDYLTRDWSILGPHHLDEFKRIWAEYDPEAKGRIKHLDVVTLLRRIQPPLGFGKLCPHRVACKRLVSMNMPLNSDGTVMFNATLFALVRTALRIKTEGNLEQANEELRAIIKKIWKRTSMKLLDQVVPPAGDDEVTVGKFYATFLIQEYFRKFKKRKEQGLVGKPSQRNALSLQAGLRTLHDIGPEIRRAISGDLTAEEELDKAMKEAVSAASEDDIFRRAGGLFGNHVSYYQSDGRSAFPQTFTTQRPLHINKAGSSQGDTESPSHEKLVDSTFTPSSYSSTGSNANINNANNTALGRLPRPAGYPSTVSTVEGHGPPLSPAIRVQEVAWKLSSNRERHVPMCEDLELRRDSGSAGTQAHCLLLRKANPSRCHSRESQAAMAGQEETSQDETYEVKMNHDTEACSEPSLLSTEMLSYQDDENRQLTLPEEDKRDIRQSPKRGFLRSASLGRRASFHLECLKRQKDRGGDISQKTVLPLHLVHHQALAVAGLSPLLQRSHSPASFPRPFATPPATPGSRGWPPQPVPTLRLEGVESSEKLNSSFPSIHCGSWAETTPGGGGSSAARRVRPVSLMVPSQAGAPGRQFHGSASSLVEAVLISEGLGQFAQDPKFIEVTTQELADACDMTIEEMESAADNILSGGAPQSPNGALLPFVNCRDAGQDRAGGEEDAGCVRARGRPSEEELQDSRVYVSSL
Sequence of CaV1.2 (Q08289 whole entry partner): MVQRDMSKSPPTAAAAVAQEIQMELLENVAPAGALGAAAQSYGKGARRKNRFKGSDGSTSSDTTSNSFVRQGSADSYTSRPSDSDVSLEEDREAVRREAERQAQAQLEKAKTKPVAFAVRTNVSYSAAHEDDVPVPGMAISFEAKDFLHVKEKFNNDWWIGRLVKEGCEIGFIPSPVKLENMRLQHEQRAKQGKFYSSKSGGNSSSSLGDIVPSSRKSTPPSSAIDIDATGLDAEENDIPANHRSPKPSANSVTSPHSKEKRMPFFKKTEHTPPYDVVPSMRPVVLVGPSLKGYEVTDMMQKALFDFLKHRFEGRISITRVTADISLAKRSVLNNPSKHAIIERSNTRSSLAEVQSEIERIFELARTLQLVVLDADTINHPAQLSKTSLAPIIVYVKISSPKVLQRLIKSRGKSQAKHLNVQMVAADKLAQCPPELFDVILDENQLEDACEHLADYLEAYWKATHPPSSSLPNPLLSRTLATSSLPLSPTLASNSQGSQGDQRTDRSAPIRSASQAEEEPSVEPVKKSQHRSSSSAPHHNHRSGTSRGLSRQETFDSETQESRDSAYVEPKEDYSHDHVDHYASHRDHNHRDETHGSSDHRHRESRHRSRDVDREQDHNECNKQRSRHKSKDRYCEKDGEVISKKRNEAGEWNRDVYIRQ
Sequence of CaV1.2 (P54289 25-956 partner limits assumed): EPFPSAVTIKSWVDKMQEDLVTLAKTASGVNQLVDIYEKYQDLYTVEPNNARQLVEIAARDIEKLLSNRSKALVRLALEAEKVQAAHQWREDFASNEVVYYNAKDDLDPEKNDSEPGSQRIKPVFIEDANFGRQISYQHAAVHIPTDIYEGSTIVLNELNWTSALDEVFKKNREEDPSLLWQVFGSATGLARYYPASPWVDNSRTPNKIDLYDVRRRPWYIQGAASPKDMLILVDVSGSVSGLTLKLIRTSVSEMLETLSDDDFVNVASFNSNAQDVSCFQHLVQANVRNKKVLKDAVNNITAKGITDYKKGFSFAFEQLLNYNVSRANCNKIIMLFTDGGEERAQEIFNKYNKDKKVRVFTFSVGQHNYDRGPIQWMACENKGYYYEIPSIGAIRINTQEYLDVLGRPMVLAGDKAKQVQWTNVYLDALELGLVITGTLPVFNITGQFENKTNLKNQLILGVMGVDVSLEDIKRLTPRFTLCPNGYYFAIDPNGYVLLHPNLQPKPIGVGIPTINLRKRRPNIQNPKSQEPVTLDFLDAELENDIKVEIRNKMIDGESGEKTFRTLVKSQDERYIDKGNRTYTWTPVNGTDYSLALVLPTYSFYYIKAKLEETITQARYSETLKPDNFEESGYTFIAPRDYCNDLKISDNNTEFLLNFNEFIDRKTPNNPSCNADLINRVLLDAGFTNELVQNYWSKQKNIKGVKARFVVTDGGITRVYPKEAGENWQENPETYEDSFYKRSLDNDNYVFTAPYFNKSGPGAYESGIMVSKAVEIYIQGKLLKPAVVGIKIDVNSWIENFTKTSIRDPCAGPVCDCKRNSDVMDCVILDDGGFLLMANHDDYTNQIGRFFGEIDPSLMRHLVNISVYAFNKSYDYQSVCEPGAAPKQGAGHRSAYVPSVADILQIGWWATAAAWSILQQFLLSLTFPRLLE
Sequence of CaV1.2 (P54289 957-1103 partner limits assumed): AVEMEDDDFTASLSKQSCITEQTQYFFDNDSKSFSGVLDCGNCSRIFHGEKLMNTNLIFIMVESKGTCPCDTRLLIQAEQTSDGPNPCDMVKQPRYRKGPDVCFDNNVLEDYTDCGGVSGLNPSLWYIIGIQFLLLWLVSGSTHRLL

Structure (SMILES) | Kv4.3 pIC50 (Q) (Kv4.3/KChIP2.2; 0.0 = pIC50 ≤ 0 fitted) | Cmax TOTAL ([2]; Cmax high, ref Gintant (2011)) | Cmax TOTAL ([2]; Cmax low, ref Gintant (2011)) | Cmax FREE ([3]; Cmax high, calculated with PPB) | Cmax FREE [3, 8] | Free plasma concentration ([3]; Cmax low) | Cmax FREE ([3]; Cmax low, calculated with PPB) | PPB (percent plasma binding) [4] | Cmax FREE [3, 13] | further results
COCCCOc1cc(C[C@@H](C[C@H](N)[C@@H](O)C[C@H](C(=O)NCC(C)(C)C(N)=O)C(C)C)C(C)C)ccc1OC [ALISKIRIN] |  |  |  |  |  |  |  |  |  | relationship between exposure and QTc in words (COMMENTS) ([1]; ref Gintant (2011)): Lack of relationship between aliskirin exposure and QTcF
COc1cc2nc(N(C)CCCNC(=O)C3CCCO3)nc(N)c2cc1OC (stereo not shown) [Alfuzosin] | 3.0 | 40.5 ng/mL | 8 ng/mL | 4.05 ng/mL | 7.74 nM | 1.529 nM | 0.80 ng/mL | 90% ppb |  | Free plasma concentration ([3]; Cmax high): 7.739 nM; Cmax TOTAL [3, 7]: 77.39 nM; Cmax TOTAL [3, 9]: 15.29 nM; estimated TQT concentration (free plasma) ([3]; largest dose in the TQT study): < 10^–2 μM; QTc change, individual correction [1, 10]: 4.3 ms; QTc change, population correction [1, 10]: 4.2 ms; KCNQ1 pIC50 (Q) (KCNQ1/MinK): 3.9
NC(=O)C(c1ccccc1)(c1ccccc1)[C@@H]1CCN(CCc2ccc3c(c2)CCO3)C1 [Darifenacin] | 4.9 |  |  |  |  |  |  | 98% PPB |  | Cmax TOTAL ([2]; first (lower) of two lines, not labelled low/high, ref Gintant (2011)): 5.6 ng/mL; Cmax TOTAL ([2]; second (higher) of two lines, not labelled low/high, ref Gintant (2011)): 63.3 ng/mL; Cmax FREE [3, 11]: 0.112 ng/mL and 0.2207 nM; Cmax TOTAL [3, 11]: 11.0345 nM; Free plasma concentration [3, 11]: 0.2207 nM; Cmax FREE [3, 12]: 1.266 ng/mL and 2.495 nM; Cmax TOTAL [3, 12]: 124.729 nM; Free plasma concentration [3, 12]: 2.495 nM; QT shortening in the TQT study ([1]; ref Gintant (2011)): 2 to 7 ms
Cc1nc(Nc2ncc(C(=O)Nc3c(C)cccc3Cl)s2)cc(N2CCN(CCO)CC2)n1.O [Dasatinib] |  | 263 ng/mL | 100 ng/mL | 10.52 ng/mL | 20.790 nM | 7.905 nM | 4 ng/mL | 96% PPB | 7.905 nM | Kv4.3 pIC50 (Q) (Kv4.3/KChIP2.2; […]): 3.5; Free plasma concentration ([3]; Cmax high): 20.79 nM; Cmax TOTAL [3, 7]: 519.742 nM; Cmax TOTAL [3, 9]: 197.621 nM
O=C(O)c1ccc(-n2nc(-c3ccccc3O)nc2-c2ccccc2O)cc1 [Deferasirox] |  |  |  |  |  |  |  | 99.5% |  | NaV1.5 pIC50 (Q) (NaV1.5 [5]; [14]): 4.1; NaV1.5 pIC50 (Q2) (NaV1.5 [6]; second independent Quattro screening, −log10 of IC50 in Molar, 0.0 = pIC50 ≤ 0 fitted): 3.3; Cmax TOTAL ([2]; Cmax TQT, 40mg/kg, comes from docs, ref Gintant (2011)): 199 comes from docs for Cmax uM; CaV1.2 pIC50 (Q) (CaV1.2; [14]): 3.0; Cmax FREE ([3]; Cmax 40mg/kg): 995 nM; Cmax TOTAL ([3]; Cmax 40mg/kg): 199000 nM; Free plasma concentration ([3]; Cmax 40mg/kg): 995 nM
CN(CCOc1ccc(NS(C)(=O)=O)cc1)CCc1ccc(NS(C)(=O)=O)cc1 [Dofetilide] |  |  |  |  |  |  |  |  |  | total plasma conc ([2]; ref Gintant (2011)): 9.5 nM; plasma concentration ([3]; end of the line in nM): 9.5 nM; plasma concentration ([3]; end of the line in ng/mL): 4.195 nM; therapeutic range, lower value ([3]; line in ng/mL): 0.1766 ng/mL; therapeutic range, upper value ([3]; line in ng/mL): 0.8832 ng/mL; total plasma conc ([3]; line in ng/mL): 4.1952 ng/mL
C[C@@H](O)[C@H]1C(=O)N2C(C(=O)O)=C(S[C@@H]3CN[C@H](CNS(N)(=O)=O)C3)[C@H](C)[C@H]12 [Doripenem] |  | 45000 ng/mL | 21000 ng/mL | 41355 ng/mL | 98346.2 nM | 45894.9 nM | 19299 ng/mL | 8.1% PPB | 45894.9 nM | CaV1.2 pIC50 (Q) (CaV1.2): 5.7; Free plasma concentration ([3]; Cmax high): 98346.2 nM
Cc1cc(C#N)cc(C)c1Oc1nc(Nc2ccc(C#N)cc2)nc(N)c1Br [Etravirine] | 2.5 | 1322 ng/mL | 921 ng/mL | 1.322 ng/mL | 3.037 nM |  | 0.921 ng/mL | 99.9% PPB | 2.116 nM | mean Cmax ([2]; supratherapeutic / highest dose of the TQT study, ref Gintant (2011)): 1378 ng/mL; QTc change (QTcF) ([1]; TQT study, highest dose, ref Gintant (2011)): -5.70 ms; QT shortening in the TQT study ([1]; ref Gintant (2011)): 2 to 7 ms; TQT study outcome in words (COMMENTS) ([1]; ref Gintant (2011)): QT shortening; KCNQ1 pIC50 (Q) (KCNQ1/MinK): 2.9
CO[C@H]1C[C@@H]2CC[C@@H](C)[C@@](O)(O2)C(=O)C(=O)N2CCCC[C@H]2C(=O)O[C@H]([C@H](C)C[C@@H]2CC[C@@H](OCCO)[C@H](OC)C2)CC(=O)[C@H](C)/C=C(\C)[C@@H](O)[C@@H](OC)C(=O)[C@H](C)C[C@H](C)/C=C/C=C/C=C/1C [Everolimus] | 2.0 |  |  |  |  |  |  | 74% |  | NaV1.5 pIC50 (Q) (NaV1.5 [5]): 3.2; NaV1.5 pIC50 (Q2) (NaV1.5 [6]): 3.7; Cmax TOTAL ([2]; Cmax 50mg/kg, ref http://journals.lww.com/jto/pages/articleviewer.aspx?year=2011&issue=12000&article=00023&type=abstract Table 6): 251 ng/mL; Cmax FREE ([3]; Cmax 50mg/kg): 65.26 ng/mL; Cmax TOTAL ([3]; Cmax 50mg/kg): 261.943 nM; KCNQ1 pIC50 (Q) (KCNQ1/MinK): 4.0
COc1c(N2C[C@@H]3CCCN[C@@H]3C2)c(F)cc2c(=O)c(C(=O)O)cn(C3CC3)c12 [Moxifloxacin] |  |  | 2793.4 ng/mL |  |  | 2745 nM | 1257.030 ng/mL | 55% PPB |  | 
Cc1cn(-c2cc(NC(=O)c3ccc(C)c(Nc4nccc(-c5cccnc5)n4)c3)cc(C(F)(F)F)c2)cn1 [Nilotinib] |  |  | […] |  |  | 83.86 nM | 45.200 ng/mL | 98% PPB | 83.861 nM | NaV1.5 pIC50 (Q) (NaV1.5 [5]): 3.0; NaV1.5 pIC50 (Q2) (NaV1.5 [6]): […]; Cmax TOTAL [3, 9]: 4193.028 nM
O=C1c2cccc3c2[C@H](CCC3)CN1[C@@H]1CN2CCC1CC2 [Palonosetron] |  | 5.6 ng/mL | 2.549 ng/mL | 2.128 ng/mL | 6.393 nM | 2.91 nM | 0.9686 ng/mL | 62% | 2.910 nM | Free plasma concentration ([3]; Cmax high): 6.393 nM; Cmax TOTAL [3, 7]: 16.823 nM; Cmax TOTAL [3, 9]: 7.658 nM; TQT study outcome in words (COMMENTS) ([1]; ref Gintant (2011)): Product labeling: no significant effect on any ECG interval
CCCc1nn(C)c2c(=O)[nH]c(-c3cc(S(=O)(=O)N4CCN(C)CC4)ccc3OCC)nc12 [Sildenafil] | 3.3 |  |  | 60.76 ng/mL | 128.024 nM |  | 7.12 ng/mL | 96% | 15.0021 nM | NaV1.5 pIC50 (Q) (NaV1.5 [5]): 3.3; NaV1.5 pIC50 (Q2) (NaV1.5 [6]): 2.9
N[C@@H](CC(=O)N1CCn2c(nnc2C(F)(F)F)C1)Cc1cc(F)c(F)cc1F [Sitagliptin] |  | 5468 ng/mL | 498 ng/mL | 3827.6 ng/mL | 9397.17 nM |  | 348.6 ng/mL | 30% PPB | 855.851 nM | NaV1.5 pIC50 (Q) (NaV1.5 [5]): 3.1; NaV1.5 pIC50 (Q2) (NaV1.5 [6]): 3.2; CaV1.2 pIC50 (Q) (CaV1.2; [14]): 1.0; TQT study outcome in words (COMMENTS) ([1]; ref Gintant (2011)): Minimal effects at supratherapeutic concentrations; KCNQ1 pIC50 (Q) (KCNQ1/MinK): 3.5
O=C(O[C@H]1CN2CCC1CC2)N1CCc2ccccc2[C@@H]1c1ccccc1 [Solifenacin] |  |  |  |  |  |  |  | 98% PPB |  | 
CC[C@@H](c1cccc(O)c1)[C@@H](C)CN(C)C [TAPENTADOL] |  |  |  |  |  |  |  |  |  | TQT study outcome in words (COMMENTS) ([1]; ref Gintant (2011)): 90% Confidence interval; study considered negative

Source: publication PMC4266452, “Prediction of Thorough QT study results using action potential simulations based on ion channel screens” (Journal of Pharmacological and Toxicological Methods, 2014)
